Patent US20120283100A1, “CONTROLLING PLANTHOPPERS” (priority 2011, published 2012)
Values joined by “and” are separate entries in the source; they are usually repeats but may differ in a detail not shown here. Equal entries are not always repeated.

Tested on: brown planthoppers, Nilaparvata lugens
Assay: Field efficacy on brown planthopper in transplanted rice (small-plot trials A-D)
Assay type: in vivo
Settings: Sulfoxaflor 50 g/ha, Chlorpyrifos 500 g/ha, mixture 50 + 500 g/ha; for % Control: Trial A
Experimental: Applications were made to transplanted rice, Oryza sativa, using standard small-plot efficacy methods. Chemicals were diluted in water and all treatments were applied using a backpack sprayer calibrated to deliver 500 liters of spray per hectare. Experimental plots measured 5 by 10 meters and each treatment was replicated three times in each trial. At the specified intervals after treatment, brown planthoppers, Nilaparvata lugens, were counted in 10 randomly selected hills per plot. Data were transformed to percent control relative to the untreated plots, then subjected to analysis of variance, and means were separated using Tukey's HSD (p=0.1). Expected control was calculated using the method of Colby and compared to observed control. See the Table Section for the results of the Field Trials.

Row | SMILES | % Control (1 DAT, relative to untreated plots) | % Control (3 DAT) | % Control (7 DAT) | % Control (10 DAT) | % Control (15 DAT) | % Control at DAT (Trial B, 1 DAT) | % Control at DAT (Trial B, 3 DAT) | % Control at DAT (Trial B, 7 DAT) | % Control at DAT (Trial B, 10 DAT) | % Control at DAT (Trial B, 15 DAT) | % Control at DAT (Trial C, 1 DAT) | % Control at DAT (Trial C, 3 DAT) | % Control at DAT (Trial C, 7 DAT) | % Control at DAT (Trial C, 10 DAT) | % Control at DAT (Trial C, 15 DAT) | % Control at DAT (Trial D, 1 DAT) | % Control at DAT (Trial D, 7 DAT) | % Control at DAT (Trial D, 10 DAT) | % Control at DAT (Trial D, 15 DAT)
1 | CCOP(=S)(OCC)Oc1nc(Cl)c(Cl)cc1Cl [Chlorpyrifos] | 13.7 bc % and 13.7% | 37.5 b % and 37.5% | 32.4 b % and 32.4% | 7.8 b % and 7.8% | 21.0 b % and 21% | 45.2 ab % and 45.2% | 64.8 b % and 64.8% | 54.0 b % and 54% | 39.8 b % and 39.8% | 57.8 b % and 57.8% | 53.4 ab % and 53.4% | 67.0 b % and 67% | 59.7 b % and 59.7% | 10.5 b % and 10.5% | 37.9 b % and 37.9% | 59.6 c % and 59.6% | 53.8 c % and 53.8% | 18.2 c % and 18.2% | 27.0 c % and 27%
2 | CC(c1ccc(C(F)(F)F)nc1)S(C)(=O)=NC#N (stereo not drawn) [Sulfoxaflor] | – | – | – | 6.8% | – | – | – | – | 48.2% | – | – | – | – | – | – | – | – | – | –
